Results as given in ChEMBL document CHEMBL1687773 (Antimicrob Agents Chemother, 2010).
Activity calls are given as the source filed them. The rule behind the calls is not given here.

Key:
HepG2 = experiment: Inhibition of DNA synthesis in human HepG2 cells assessed as [3H]-thymidine incorporation at up to 10 uM; type: functional, cell-based
Homo sapiens [1] = species: Homo sapiens; experiment: Inhibition of human L-type calcium channel dihydropyridine binding site at up to 10 uM
[2] = tested on: Human immunodeficiency virus 1; experiment: Antiviral activity against HIV1 NL4-3 harboring reverse transcriptase F227L mutant infected in human HeLaP4 cells assessed as inhibition of viral replication after 5 days by beta-galactosidase reporter assay; type: functional, organism-based
[3] = molecular target: 5-hydroxytryptamine receptor 2A (Homo sapiens) (UniProt P28223); experiment: Inhibition of human 5-HT2A receptor at up to 10 uM
[4] = tested on: Human immunodeficiency virus 1; experiment: Antiviral activity against HIV1 NL4-3 harboring reverse transcriptase M184V mutant infected in human HeLaP4 cells assessed as inhibition of viral replication after 5 days by beta-galactosidase reporter assay; type: functional, organism-based
[5] = tested on: Human immunodeficiency virus 1; experiment: Antiviral activity against HIV1 NL4-3 harboring reverse transcriptase V108I, E138K mutant infected in human SupT1 cells derived from 9 viral passages with lersivirine assessed as inhibition of viral replication after 21 days relative to drug sensitive HIV1 NL4-3; type: functional, SUP-T1
[6] = molecular target: Amine oxidase [flavin-containing] B (Homo sapiens, UniProt P27338); experiment: Inhibition of human MAO-B at up to 10 uM
[7] = molecular target: 5-hydroxytryptamine receptor 1A (Homo sapiens) (UniProt P08908); experiment: Inhibition of human 5-HT1A receptor at up to 10 uM
[8] = tested on: Human immunodeficiency virus 1; experiment: Antiviral activity against HIV1 NL4-3 harboring reverse transcriptase E233V mutant infected in human HeLaP4 cells assessed as inhibition of viral replication after 5 days by beta-galactosidase reporter assay; type: functional, organism-based
[9] = tested on: Human immunodeficiency virus 1; experiment: Ratio of EC50 for wild type HIV1 NL4-3 to EC50 for HIV1 NL4-3 harboring reverse transcriptase P236L mutant; type: functional
[10] = molecular target: Glutamate [NMDA] receptor (Homo sapiens) (UniProt Q05586+Q12879+Q13224+O15399+O60391+Q14957+Q8TCU5); experiment: Inhibition of human NMDA receptor at up to 10 uM
[11] = tested on: Human immunodeficiency virus 1; experiment: Ratio of EC50 for wild type HIV1 NL4-3 to EC50 for HIV1 NL4-3 harboring reverse transcriptase F227L mutant; type: functional
[12] = Inhibition of human phosphodiesterase 4
[13] = tested on: Human immunodeficiency virus 1; experiment: Ratio of EC50 for wild type HIV1 NL4-3 to EC50 for HIV1 NL4-3 harboring reverse transcriptase E138K mutant; type: functional
[14] = Cytotoxicity against human HeLaP4 cells at 200 uM by aqueous nonradioactive cell proliferation assay; type: cell-based; conditions: helap4, 200 µM
[15] = molecular target: Adrenergic receptor alpha-1 (Homo sapiens) (UniProt P35348+P25100+P35368); experiment: Inhibition of human adrenergic alpha1 receptor at up to 10 uM
[16] = tested on: Human immunodeficiency virus type 1 reverse transcriptase (Human immunodeficiency virus 1), Q72547 [K101E]; experiment: Inhibition of HIV1 histidine-tagged reverse transcriptase K101E mutant activity by primer extension assay
[17] = tested on: Human immunodeficiency virus type 1 reverse transcriptase (Human immunodeficiency virus 1), Q72547 [K103N]; experiment: Inhibition of HIV1 histidine-tagged reverse transcriptase K103N mutant activity by primer extension assay
[18] = molecular target: T1, Human immunodeficiency virus type 1 reverse transcriptase (Human immunodeficiency virus 1, UniProt Q72547); experiment: Inhibition of HIV1 reverse transcriptase activity by primer extension assay
[19] = tested on: Human immunodeficiency virus 1; experiment: Antiviral activity against HIV1 NL4-3 harboring reverse transcriptase E138K mutant infected in human HeLaP4 cells assessed as inhibition of viral replication after 5 days by beta-galactosidase reporter assay; type: functional, organism-based
[20] = tested on: Human immunodeficiency virus type 1 reverse transcriptase (Human immunodeficiency virus 1), Q72547 [Y188C]; experiment: Inhibition of HIV1 histidine-tagged reverse transcriptase Y188C mutant activity by primer extension assay
[21] = tested on: Human immunodeficiency virus type 1 reverse transcriptase (Human immunodeficiency virus 1), Q72547 [M184V]; experiment: Inhibition of HIV1 histidine-tagged reverse transcriptase M184V mutant activity by primer extension assay
[22] = tested on: Human immunodeficiency virus 1; experiment: Ratio of EC50 for wild type HIV1 NL4-3 to EC50 for HIV1 NL4-3 harboring reverse transcriptase K101E mutant; type: functional
[23] = tested on: Human immunodeficiency virus 1; experiment: Antiviral activity against HIV1 NL4-3 harboring reverse transcriptase V108I mutant infected in human HeLaP4 cells assessed as inhibition of viral replication after 5 days by beta-galactosidase reporter assay; type: functional, organism-based
Homo sapiens [24] = species: Homo sapiens; experiment: Inhibition of human neuronal nicotinic […] receptor at up to 10 uM
[25] = tested on: Human immunodeficiency virus 1; experiment: Antiviral activity against HIV1 NL4-3 harboring reverse transcriptase V108I, H221Y, F227F/L, M230M/I mutant infected in human SupT1 cells derived from 11 viral passages with lersivirine assessed as inhibition of viral replication after 21 days relative to drug sensitive HIV1 NL4-3; type: functional, SUP-T1
[26] = tested on: Human immunodeficiency virus 1; experiment: Ratio of EC50 for wild type HIV1 NL4-3 to EC50 for HIV1 NL4-3 harboring reverse transcriptase V106A mutant; type: functional
[27] = molecular target: T1, Human immunodeficiency virus type 1 reverse transcriptase; experiment: Mixed non-competitive inhibition of HIV1 reverse transcriptase activity
[28] = tested on: Human immunodeficiency virus 1; experiment: Antiviral activity against HIV1 NL4-3 harboring reverse transcriptase Y181I mutant infected in human HeLaP4 cells assessed as inhibition of viral replication after 5 days by beta-galactosidase reporter assay; type: functional, organism-based
[29] = tested on: Human immunodeficiency virus 1; type: functional, organism-based; conditions: NL4-3, HeLaP4
[30] = tested on: Human immunodeficiency virus 1; experiment: Ratio of EC50 for wild type HIV1 NL4-3 to EC50 for HIV1 NL4-3 harboring reverse transcriptase V108I mutant; type: functional
Homo sapiens [31] = species: Homo sapiens; experiment: Inhibition of human tyrosine hydroxylase at up to 10 uM
[32] = tested on: Human immunodeficiency virus type 1 reverse transcriptase (Human immunodeficiency virus 1), Q72547 [K103N]; experiment: Binding affinity to HIV1 HXB2 reverse transcriptase K103N mutant by protein X-ray crystallography analysis
[33] = molecular target: Histamine H1 receptor (Homo sapiens) (UniProt P35367); experiment: Inhibition of human histamine H1 receptor at up to 10 uM
[34] = tested on: Human immunodeficiency virus 1; type: functional, organism-based; conditions: NL4-3, HeLaP4; remark: listed apart in the source
[35] = tested on: Human immunodeficiency virus 1; experiment: Antiviral activity against HIV1 NL4-3 harboring reverse transcriptase V108I, E138K, F227F/L mutant infected in human SupT1 cells derived from 11 viral passages with lersivirine assessed as inhibition of viral replication after 21 days relative to drug sensitive HIV1 NL4-3; type: functional, SUP-T1
[36] = molecular target: 5-hydroxytryptamine receptor 1B (Homo sapiens) (UniProt P28222); experiment: Inhibition of human 5-HT1B receptor at up to 10 uM
[37] = tested on: Human immunodeficiency virus 1; experiment: Ratio of EC50 for wild type HIV1 NL4-3 to EC50 for HIV1 NL4-3 harboring reverse transcriptase Y181I, Y188L mutant; type: functional
[38] = tested on: Human immunodeficiency virus 1; experiment: Ratio of EC50 for wild type HIV1 NL4-3 to EC50 for HIV1 NL4-3 harboring reverse transcriptase V106A, F227L mutant; type: functional
[39] = molecular target: Beta-2 adrenergic receptor (Homo sapiens) (UniProt P07550); experiment: Inhibition of human adrenergic beta2 receptor at up to 10 uM
[40] = tested on: Human immunodeficiency virus 1; experiment: Antiviral activity against wild type HIV1 NL4-3 infected in human HeLaP4 cells assessed as inhibition of viral replication after 5 days by beta-galactosidase reporter assay; type: functional, organism-based; conditions: Human immunodeficiency virus 1, NL4-3, HeLaP4, 120 h

5-hydroxytryptamine receptor 1A (Homo sapiens), sequence (P08908 whole entry): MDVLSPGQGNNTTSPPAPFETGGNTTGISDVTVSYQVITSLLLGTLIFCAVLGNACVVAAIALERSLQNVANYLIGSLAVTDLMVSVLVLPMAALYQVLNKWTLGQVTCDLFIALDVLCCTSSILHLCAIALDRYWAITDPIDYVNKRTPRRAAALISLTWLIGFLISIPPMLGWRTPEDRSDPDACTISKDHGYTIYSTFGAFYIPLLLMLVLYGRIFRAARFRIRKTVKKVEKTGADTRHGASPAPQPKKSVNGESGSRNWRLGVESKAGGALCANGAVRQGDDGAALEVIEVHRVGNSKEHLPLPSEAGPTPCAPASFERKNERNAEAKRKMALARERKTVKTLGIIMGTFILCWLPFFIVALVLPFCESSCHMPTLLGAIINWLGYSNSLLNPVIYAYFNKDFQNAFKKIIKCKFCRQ
Beta-2 adrenergic receptor (Homo sapiens), sequence (P07550 whole entry, looked up): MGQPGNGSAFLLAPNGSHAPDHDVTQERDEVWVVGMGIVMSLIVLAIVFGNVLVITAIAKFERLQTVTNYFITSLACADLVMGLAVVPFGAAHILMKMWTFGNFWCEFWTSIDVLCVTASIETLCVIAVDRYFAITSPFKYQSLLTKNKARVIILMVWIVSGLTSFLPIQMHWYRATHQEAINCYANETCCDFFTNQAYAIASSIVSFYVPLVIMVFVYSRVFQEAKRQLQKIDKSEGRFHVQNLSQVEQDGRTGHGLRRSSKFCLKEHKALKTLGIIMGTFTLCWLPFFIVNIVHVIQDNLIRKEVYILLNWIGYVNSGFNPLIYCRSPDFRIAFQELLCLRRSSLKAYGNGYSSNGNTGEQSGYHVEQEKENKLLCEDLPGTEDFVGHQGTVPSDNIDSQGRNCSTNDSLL
5-hydroxytryptamine receptor 1B (Homo sapiens), sequence (P28222 whole entry): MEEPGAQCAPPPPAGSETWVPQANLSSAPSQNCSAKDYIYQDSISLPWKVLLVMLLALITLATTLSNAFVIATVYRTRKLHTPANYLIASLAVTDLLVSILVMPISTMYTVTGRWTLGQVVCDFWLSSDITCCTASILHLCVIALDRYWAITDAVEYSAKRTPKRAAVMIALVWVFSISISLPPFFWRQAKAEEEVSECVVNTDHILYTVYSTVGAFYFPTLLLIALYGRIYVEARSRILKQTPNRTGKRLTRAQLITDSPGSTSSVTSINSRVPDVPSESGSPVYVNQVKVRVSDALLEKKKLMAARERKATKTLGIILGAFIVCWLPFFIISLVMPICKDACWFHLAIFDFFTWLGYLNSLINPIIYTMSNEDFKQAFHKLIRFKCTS
Amine oxidase [flavin-containing] B, sequence (P27338 whole entry): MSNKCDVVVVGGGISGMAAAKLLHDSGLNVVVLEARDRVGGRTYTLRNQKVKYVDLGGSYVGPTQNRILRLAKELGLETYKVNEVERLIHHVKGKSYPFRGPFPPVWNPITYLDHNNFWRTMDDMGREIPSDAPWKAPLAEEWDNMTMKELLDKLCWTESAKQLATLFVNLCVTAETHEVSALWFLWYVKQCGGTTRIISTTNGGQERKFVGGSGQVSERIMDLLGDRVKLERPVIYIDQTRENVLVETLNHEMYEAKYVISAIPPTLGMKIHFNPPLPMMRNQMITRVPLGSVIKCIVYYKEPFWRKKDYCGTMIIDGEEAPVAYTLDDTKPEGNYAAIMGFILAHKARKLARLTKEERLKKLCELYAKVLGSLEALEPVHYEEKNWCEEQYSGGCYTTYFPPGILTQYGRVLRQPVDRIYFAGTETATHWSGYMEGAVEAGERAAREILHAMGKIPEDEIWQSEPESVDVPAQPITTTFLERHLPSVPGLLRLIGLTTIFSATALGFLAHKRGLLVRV
5-hydroxytryptamine receptor 2A (Homo sapiens), sequence (P28223 whole entry): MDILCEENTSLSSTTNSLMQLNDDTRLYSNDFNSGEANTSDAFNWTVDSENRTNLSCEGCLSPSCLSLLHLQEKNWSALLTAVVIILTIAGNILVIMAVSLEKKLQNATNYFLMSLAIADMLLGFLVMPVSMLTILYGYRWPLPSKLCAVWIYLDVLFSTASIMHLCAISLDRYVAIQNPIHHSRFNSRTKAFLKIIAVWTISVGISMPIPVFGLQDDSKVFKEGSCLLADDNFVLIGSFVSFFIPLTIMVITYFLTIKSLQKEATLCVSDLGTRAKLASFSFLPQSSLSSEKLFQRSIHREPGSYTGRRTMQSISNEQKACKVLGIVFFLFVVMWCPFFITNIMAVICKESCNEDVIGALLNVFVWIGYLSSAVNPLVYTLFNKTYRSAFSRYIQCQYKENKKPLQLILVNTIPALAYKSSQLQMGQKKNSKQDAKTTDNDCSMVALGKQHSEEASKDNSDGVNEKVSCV
Histamine H1 receptor (Homo sapiens), sequence (P35367 whole entry): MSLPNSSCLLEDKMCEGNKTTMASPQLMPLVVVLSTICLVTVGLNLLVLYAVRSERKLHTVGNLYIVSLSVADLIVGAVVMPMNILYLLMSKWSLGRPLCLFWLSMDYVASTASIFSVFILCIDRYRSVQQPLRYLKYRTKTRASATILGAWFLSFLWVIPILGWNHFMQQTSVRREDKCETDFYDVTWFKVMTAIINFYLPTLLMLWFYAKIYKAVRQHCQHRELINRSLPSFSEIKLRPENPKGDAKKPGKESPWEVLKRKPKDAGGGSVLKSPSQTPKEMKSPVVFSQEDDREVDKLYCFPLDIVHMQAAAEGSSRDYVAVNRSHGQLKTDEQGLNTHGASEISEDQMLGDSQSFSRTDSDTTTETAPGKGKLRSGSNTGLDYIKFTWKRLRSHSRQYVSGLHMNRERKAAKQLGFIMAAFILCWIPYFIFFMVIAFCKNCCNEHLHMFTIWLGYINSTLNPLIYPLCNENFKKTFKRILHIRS

SMILES: CCc1nn(CCO)c(CC)c1Oc1cc(C#N)cc(C#N)c1 [LERSIVIRINE]
- inhibition (HepG2): inactive
- inhibition (Homo sapiens [1]): inactive
- inhibition [2]: Active
- inhibition [3]: inactive
- inhibition [4]: Active
- fold change (FC) [5]: 14
- inhibition (INH) [6]: Not Active
- inhibition [7]: inactive
- inhibition [8]: Active
- Ratio EC50 [9]: 10
- inhibition [10]: inactive
- Ratio EC50 [11]: 10
- IC50 [12]: 3000 nM
- Ratio EC50 [13]: 10
- Activity [14]: Non-toxic
- inhibition [15]: inactive
- inhibition [16]: Active
- inhibition [17]: Active
- IC50 [18]: 118 nM
- inhibition [19]: Active
- inhibition [20]: Active
- inhibition [21]: Active
- Ratio EC50 [22]: 10
- inhibition [23]: Active
- inhibition (Homo sapiens [24]): inactive
- fold change (FC) [25]: 60.5
- Ratio EC50 [26]: 10
- Ki [27]: 117 nM
- inhibition [28]: Active
- inhibition [29]: Active
- Ratio EC50 [30]: 10
- inhibition (Homo sapiens [31]): inactive
- Activity [32]: Active
- inhibition [33]: inactive
- inhibition [34]: Active
- fold change (FC) [35]: 143
- inhibition [36]: inactive
- Ratio EC50 [37]: 65
- Ratio EC50 [38]: >200
- inhibition [39]: inactive
- EC50 [40]: 3.96 nM
